The target in this assay is T1, SARM1 (ARM-SAM-TIR, full length SARM1) (Homo sapiens, UniProt Q6SZW1).
T1 sequence (Q6SZW1 with tags, fused parts or gaps): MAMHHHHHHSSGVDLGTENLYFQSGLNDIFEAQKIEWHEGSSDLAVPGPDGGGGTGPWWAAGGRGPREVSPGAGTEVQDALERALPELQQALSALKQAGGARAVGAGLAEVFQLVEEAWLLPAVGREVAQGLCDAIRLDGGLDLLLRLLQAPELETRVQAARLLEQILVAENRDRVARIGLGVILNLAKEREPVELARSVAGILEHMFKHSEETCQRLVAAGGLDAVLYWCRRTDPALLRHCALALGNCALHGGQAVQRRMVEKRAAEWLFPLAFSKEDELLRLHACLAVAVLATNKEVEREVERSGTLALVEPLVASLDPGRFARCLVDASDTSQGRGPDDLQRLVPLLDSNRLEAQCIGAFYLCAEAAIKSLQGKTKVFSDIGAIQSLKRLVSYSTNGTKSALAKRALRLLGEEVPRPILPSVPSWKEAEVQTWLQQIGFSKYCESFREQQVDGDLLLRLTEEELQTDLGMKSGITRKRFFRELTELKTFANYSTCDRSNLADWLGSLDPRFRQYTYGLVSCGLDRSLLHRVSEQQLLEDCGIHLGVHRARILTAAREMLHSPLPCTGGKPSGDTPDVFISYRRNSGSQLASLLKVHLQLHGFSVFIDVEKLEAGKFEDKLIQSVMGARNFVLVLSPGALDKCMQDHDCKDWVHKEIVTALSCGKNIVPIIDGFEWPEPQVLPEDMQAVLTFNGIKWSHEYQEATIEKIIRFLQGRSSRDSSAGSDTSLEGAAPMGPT
As to the kind of experiment: biochemical. The settings on record: SARM1 IC50 (nM), ARM-SAM-TIR lysate 5 μg/mL from NRK1-HEK293T cells, 2 h pre-incubation, 5 uM NAD+, 2 hr room temperature.
Description: This assay makes use of full length SARM1, which encompasses the ARM, SAM and TIR domains.
Preparation of ARM-SAM-TIR lysate (STL)
NRK1-HEK293T cells were seeded onto 150 cm^2 plates at 20×10^6 cells per plate. The next day, the cells were transfected with 15 g ARM-SAM-TIR expression plasmid, SEQ ID NO: 1.
The cultures were supplemented with 1 mM NR at time of transfection to minimize toxicity from ARM-SAM-TIR overexpression. Forty-eight hours after transfection, cells were harvested, pelleted by centrifugation at 1,000 rpm (Sorvall ST 16R centrifuge, Thermo Fisher), and washed once with cold PBS (0.01 M phosphate buffered saline NaCl 0.138 M; KCl 0.0027 M; pH 7.4). The cells were resuspended in PBS with protease inhibitors (cOmplete™ protease inhibitor cocktail, Roche product #11873580001) and cell lysates were prepared by sonication (Branson Sonifer 450, output=3, 20 episodes of stroke). The lysates were centrifuged (12,000×g for 10 min at 4° C.) to remove cell debris and the supernatants (containing ARM-SAM-TIR protein) were stored at −80° C. for later use in the in vitro ARM-SAM-TIR NADase assay (see below). Protein concentration was determined by the Bicinchoninic (BCA) method and used to normalize lysate concentrations.
ARM-SAM-TIR IC50 assay of Formula I compounds.
The enzymatic assay was performed in a 384-well polypropylene plate in Dulbecco's PBS buffer in a final assay volume of 20 μL. ARM-SAM-TIR lysate with a final concentration of 5 μg/mL was pre-incubated with the respective compound at 1% DMSO final assay concentration over 2h at room temperature. The reaction was initiated by addition of 5 uM final assay concentration of NAD+ as substrate. After a 2 hr room temperature incubation, the reaction was terminated with 40 μL of stop solution of 7.5% trichloroactetic acid in acetonitrile. The NAD+ and ADPR concentrations were analyzed by a RapidFire High Throughput Mass Spectrometry System (Agilent Technologies, Santa Clara, Calif.) using an API4000 triple quadrupole mass spectrometer (AB Sciex Framingham, Mass.).
Consider `N[C@H]1CC(Cc2ccc(Cl)nc2)C(=O)N(c2nnc(-c3ccncc3)[nH]2)C1` (single isomer, unassigned) [Compound I-61], for which the half-maximal inhibitory concentration (IC50) (in general, the concentration that inhibits the measured activity by half) was above 1000 nM.

`O=C1C(Cc2ccc(Cl)cc2)CCN1c1nnc(-c2ccncc2)[nH]1` (single isomer, unassigned) [I-4* (peak 1)] had an IC50 below 50 nM. The same measure for `O=C1C(Cc2ccc(Cl)cc2)CCCN1c1nnc(-c2ccncc2)[nH]1` (single isomer, unassigned) [I-5* (peak 1)]: below 50 nM; for `Cc1c(N2CCC(Cc3ccc(Cl)cc3)C2=O)n[nH]c1-c1ccncc1` (single isomer, unassigned) [I-6* (peak 1)]: 51 to 100 nM. `O=C1C(Cc2ccc(F)cc2)CCN1c1nnc(-c2ccncc2)[nH]1` (single isomer, unassigned) [I-7* (peak 1)]: the IC50 lay within 101 to 500 nM.

As to `O=C1C(Cc2ccc(F)cc2)CCN1c1nnc(-c2ccncc2)[nH]1` (single isomer, unassigned) [I-7* (peak 2)], the IC50 is below 50 nM.

`O=C1C(Cc2ccc(Cl)c(F)c2)CCN1c1nnc(-c2ccncc2)[nH]1` (single isomer, unassigned) [I-8* (peak 1)] came in with an IC50 below 50 nM.

On to `O=C1C(Cc2ccc(Cl)nc2)CCN1c1nnc(-c2ccncc2)[nH]1` (single isomer, unassigned) [I-9* (peak 1)], for which the IC50 was 101 to 500 nM. In the case of `O=C1C(Cc2ccc(Cl)nc2)CCN1c1nnc(-c2ccncc2)[nH]1` (single isomer, unassigned) [I-9* (peak 2)] it was 51 to 100 nM. Molecule `O=C1C(Cc2ccc(F)c(F)c2)CCN1c1nnc(-c2ccncc2)[nH]1` (single isomer, unassigned) [I-11* (peak 1)] returned an IC50 below 50 nM. Molecule `O=C1C(Cc2ccc(F)c(F)c2)CCN1c1nnc(-c2ccncc2)[nH]1` (single isomer, unassigned) [I-11* (peak 2)] registered an IC50 of 51 to 100 nM.

`O=C1C(Cc2ccc(F)c(F)c2)CCN1c1cc(-c2ccncc2)n[nH]1` (single isomer, unassigned) [I-16* (peak 1)] gave an IC50 below 50 nM. For `O=C1C(Cc2ccc(Cl)cc2)CCCN1c1cc(-c2ccncc2)n[nH]1` (single isomer, unassigned) [I-19* (peak 1)], the IC50 is below 50 nM. The same measure for `O=C1C(Cc2ccc(Cl)c(F)c2)CCCN1c1cc(-c2ccncc2)n[nH]1` (single isomer, unassigned) [I-20* (peak 1)]: below 50 nM; for `O=C1C(Cc2ccc(Cl)nc2)CCCN1c1cc(-c2ccncc2)n[nH]1` (single isomer, unassigned) [I-21* (peak 1)]: 101 to 500 nM. The same measure for `O=C1C(Cc2ccc(Cl)nc2)CCCN1c1cc(-c2ccncc2)n[nH]1` (single isomer, unassigned) [I-21* (peak 2)]: below 50 nM.

Molecule `N#Cc1ccc(CC2CCN(c3[nH]nc(-c4ccncc4)c3F)C2=O)cc1F` (single isomer, unassigned) [I-25* (peak 1)] gave a concentration for half-maximal inhibition (IC50) of 101 to 500 nM.

The molecule `N#Cc1ccc(CC2CCN(c3[nH]nc(-c4ccncc4)c3F)C2=O)cc1F` (single isomer, unassigned) [I-25* (peak 2)] returned a half-maximal inhibitory concentration (IC50) below 50 nM. For `N#Cc1ccc(CC2CCN(c3nnc(-c4ccncc4)[nH]3)C2=O)cc1F` (single isomer, unassigned) [I-26* (peak 1)], the IC50 was 101 to 500 nM. In the case of `O=C1C(Cc2ccc(F)nc2)CCN1c1[nH]nc(-c2ccncc2)c1Cl` (single isomer, unassigned) [I-32* (peak 1)] it was 51 to 100 nM; in that of `O=C1C(Cc2ccc(F)nc2)CCN1c1[nH]nc(-c2ccncc2)c1Cl` (single isomer, unassigned) [I-32* (peak 2)], below 50 nM. The same measure for `O=C1C(Cc2ccc(F)nc2)CCN1c1[nH]nc(-c2ccncc2)c1F` (single isomer, unassigned) [I-33* (peak 1)]: 51 to 100 nM; for `O=C1C(Cc2ccc(F)nc2)CCN1c1[nH]nc(-c2ccncc2)c1F` (single isomer, unassigned) [I-33* (peak 2)]: below 50 nM; for `O=C1C(Cc2ccc(Cl)nc2)CCN1c1[nH]nc(-c2ccncc2)c1Cl` (single isomer, unassigned) [I-34* (peak 1)]: below 50 nM. The same measure for `N#Cc1ccc(CC2CCN(c3cc(-c4ccncc4)n[nH]3)C2=O)cc1F` (single isomer, unassigned) [I-37* (peak 1)]: 51 to 100 nM; for `O=C1C(Cc2ccc(Cl)cc2)CNCCN1c1nc(-c2ccncc2)n[nH]1` (single isomer, unassigned) [I-38* (peak 1)]: 501 to 1000 nM. `O=C1C(Cc2ccc(Cl)cc2)CNCCN1c1nc(-c2ccncc2)n[nH]1` (single isomer, unassigned) [I-38* (peak 2)]: the IC50 is above 1000 nM.

Take `O=C1C(Cc2ccc(F)nc2)CCN1c1nnc(-c2ccncc2)[nH]1` (single isomer, unassigned) [I-39* (peak 1)]: the IC50 lay within 101 to 500 nM. The same measure for `O=C1C(Cc2ccc(Cl)nc2)CCCCN1c1cc(-c2ccncc2)n[nH]1` (single isomer, unassigned) [I-40* (peak 1)]: above 1000 nM; for `O=C1C(Cc2ccc(Cl)nc2)CCCCN1c1cc(-c2ccncc2)n[nH]1` (single isomer, unassigned) [I-40* (peak 2)]: 101 to 500 nM; for `Cc1c(-c2ccncc2)n[nH]c1N1CCC(Cc2cnc(Cl)c(F)c2)C1=O` (single isomer, unassigned) [I-41* (peak 1)]: 101 to 500 nM. In the case of `O=C1N(c2nc(-c3ccncc3)n[nH]2)CCC1(F)Cc1ccc(Cl)nc1` (single isomer, unassigned) [I-42* (peak 1)] it was above 1000 nM. The same measure for `O=C1C(Cc2ccc(Cl)cc2)OCCN1c1cc(-c2ccncc2)n[nH]1` (single isomer, unassigned) [I-47* (peak 1)]: 51 to 100 nM; for `O=C1C(Cc2ccc(Cl)cc2)OCCN1c1cc(-c2ccncc2)n[nH]1` (single isomer, unassigned) [I-47* (peak 2)]: above 1000 nM. In the case of `Cc1c(-c2ccncc2)n[nH]c1N1CCC(Cc2ccc(Cl)nc2)C1=O` (single isomer, unassigned) [I-48* (peak 1)], the IC50 fell in the range of 101 to 500 nM. The same measure for `Cc1c(-c2ccncc2)n[nH]c1N1CCC(Cc2ccc(F)c(F)c2)C1=O` (single isomer, unassigned) [I-49* (peak 1)]: 101 to 500 nM; for `Cc1c(-c2ccncc2)n[nH]c1N1CCC(Cc2ccc(F)c(F)c2)C1=O` (single isomer, unassigned) [I-49* (peak 2)]: 51 to 100 nM; for `CC1(Cc2ccc(Cl)cc2)CCCN(c2nc(-c3ccncc3)n[nH]2)C1=O` (single isomer, unassigned) [I-54* (peak 1)]: 501 to 1000 nM. In the case of `CC1(Cc2ccc(Cl)cc2)CCCN(c2nc(-c3ccncc3)n[nH]2)C1=O` (single isomer, unassigned) [I-54* (peak 2)] it was 101 to 500 nM; in that of `O=C1C(Cc2ccc(Cl)nc2)CCCN1c1nnc(-c2ccncc2)[nH]1` (single isomer, unassigned) [I-55* (peak 1)], 51 to 100 nM. In the case of `N[C@H]1CC(Cc2ccc(Cl)nc2)C(=O)N(c2cc(-c3ccncc3)n[nH]2)C1` (single isomer, unassigned) [I-60* (peak 1)] it was above 1000 nM; in that of `N[C@H]1CC(Cc2ccc(Cl)nc2)C(=O)N(c2cc(-c3ccncc3)n[nH]2)C1` (single isomer, unassigned) [I-60* (peak 2)], 101 to 500 nM. For `O=C1C(Cc2cnc(Cl)c(F)c2)CCN1c1cc(-c2ccncc2)n[nH]1` (single isomer, unassigned) [I-65* (peak 1)], the IC50 is below 50 nM.

For `O=C1C(Cc2cnc(Cl)c(F)c2)CCCN1c1cc(-c2ccncc2)n[nH]1` (single isomer, unassigned) [I-66* (peak 1)], the IC50 is below 50 nM. In the case of `O=C1C(Cc2cnc(Cl)c(F)c2)CCCN1c1cc(-c2ccncc2)n[nH]1` (single isomer, unassigned) [I-66* (peak 2)] it was 101 to 500 nM. The same measure for `O=C1C(Cc2ccc(F)nc2)CCN1c1cc(-c2ccncc2)n[nH]1` (single isomer, unassigned) [I-67* (peak 1)]: 51 to 100 nM; for `O=C1C(Cc2ccc(F)nc2)CCN1c1cc(-c2ccncc2)n[nH]1` (single isomer, unassigned) [I-67* (peak 2)]: below 50 nM. Molecule `[2H]C([2H])(c1ccc(Cl)nc1)C1([2H])C(=O)N(c2cc(-c3ccncc3)n[nH]2)C([2H])([2H])C([2H])([2H])C1([2H])[2H]` (single isomer, unassigned) [I-79* (peak 1)] came in with an IC50 below 50 nM.

The molecule `[2H]C([2H])(c1ccc(Cl)nc1)C1([2H])C(=O)N(c2cc(-c3ccncc3)n[nH]2)C([2H])([2H])C([2H])([2H])C1([2H])[2H]` (single isomer, unassigned) [I-79* (peak 2)] registered an IC50 of 101 to 500 nM.

Consider `O=C1[C@H](Cc2ccc(Cl)cc2)NCCN1c1cc(-c2ccncc2)n[nH]1` [Compound I-1-a], for which the 50% inhibitory concentration (IC50) was in the range of 101 to 500 nM.

The record behind these values is patent publication US12043613B2, “Inhibitors of SARM1” (Disarm Therapeutics, Inc., priority 2020, dated 2024).
